Experimental data as given in PubChem BioAssay (NCI).
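Protocol summary: plate cells (96-well), add compound at 5 concentrations, incubate 48 h, interpolate endpoints linearly. At the GI50, growth is halved. The concentration for full growth arrest is given as TGI.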

Legend:
Assay in all cases: growth of human tumour cells (NCI), 48 h
K-562 leukemia = tested on: K-562 leukemia
OVCAR-3 ovarian = tested on: OVCAR-3 ovarian
CAKI-1 renal = tested on: CAKI-1 renal
HL-60(TB) leukemia = tested on: HL-60(TB) leukemia
IGROV1 ovarian = tested on: IGROV1 ovarian
NCI-H226 lung = tested on: NCI-H226 lung
HOP-62 NSCLC = tested on: HOP-62 NSCLC
SK-MEL-2 melanoma = tested on: SK-MEL-2 melanoma
U251 CNS = tested on: U251 CNS
COLO 205 colon = tested on: COLO 205 colon
UO-31 renal = tested on: UO-31 renal
UACC-62 melanoma = tested on: UACC-62 melanoma
RXF 393 renal = tested on: RXF 393 renal
RPMI-8226 leukemia = tested on: RPMI-8226 leukemia
KM12 colon = tested on: KM12 colon
PC-3 prostate = tested on: PC-3 prostate
MOLT-4 leukemia = tested on: MOLT-4 leukemia
SNB-75 CNS = tested on: SNB-75 CNS
OVCAR-8 ovarian = tested on: OVCAR-8 ovarian
NCI/ADR-RES ovarian = tested on: NCI/ADR-RES ovarian
HCT-116 colon = tested on: HCT-116 colon
MDA-MB-231 breast = tested on: MDA-MB-231 breast
HCT-15 colon = tested on: HCT-15 colon
SF-295 CNS = tested on: SF-295 CNS
SN12C renal = tested on: SN12C renal
MDA-MB-435 = tested on: MDA-MB-435
UACC-257 melanoma = tested on: UACC-257 melanoma
CCRF-CEM leukemia = tested on: CCRF-CEM leukemia
NCI-H460 lung = tested on: NCI-H460 lung
BT-549 breast = tested on: BT-549 breast
HT29 colon = tested on: HT29 colon
SNB-19 CNS = tested on: SNB-19 CNS
OVCAR-5 ovarian = tested on: OVCAR-5 ovarian
SW-620 colon = tested on: SW-620 colon
ACHN renal = tested on: ACHN renal
HS 578T breast = tested on: HS 578T breast
MCF7 breast = tested on: MCF7 breast
SF-539 CNS = tested on: SF-539 CNS
SF-268 CNS = tested on: SF-268 CNS
SR leukemia = tested on: SR leukemia
A549 NSCLC = tested on: A549 NSCLC
OVCAR-4 ovarian = tested on: OVCAR-4 ovarian
SK-MEL-28 melanoma = tested on: SK-MEL-28 melanoma
LOX IMVI melanoma = tested on: LOX IMVI melanoma
TK-10 renal = tested on: TK-10 renal
NCI-H522 lung = tested on: NCI-H522 lung
786-0 renal = tested on: 786-0 renal
SK-OV-3 ovarian = tested on: SK-OV-3 ovarian
M14 melanoma = tested on: M14 melanoma
T-47D breast = tested on: T-47D breast
MALME-3M melanoma = tested on: MALME-3M melanoma
HCC-2998 colon = tested on: HCC-2998 colon
EKVX NSCLC = tested on: EKVX NSCLC
HOP-92 NSCLC = tested on: HOP-92 NSCLC
A498 renal = tested on: A498 renal
NCI-H23 lung = tested on: NCI-H23 lung

For `O=Cc1ccccc1B(O)O`, the TGI (K-562 leukemia) was > 100000 nM, the TGI (OVCAR-3 ovarian) was > 100000 nM and the TGI (CAKI-1 renal) was > 100000 nM. For the same compound, the TGI (HL-60(TB) leukemia) was > 100000 nM, the TGI (IGROV1 ovarian) was > 100000 nM and the TGI (NCI-H226 lung) was > 100000 nM. For the same compound, the TGI (HOP-62 NSCLC) was > 100000 nM, the TGI (SK-MEL-2 melanoma) was > 100000 nM and the TGI (U251 CNS) was > 100000 nM. For the same compound, the TGI (COLO 205 colon) was 40300 nM, the TGI (UO-31 renal) was > 100000 nM and the TGI (UACC-62 melanoma) was > 100000 nM. For the same compound, the TGI (RXF 393 renal) was > 100000 nM, the TGI (RPMI-8226 leukemia) was 47.2 nM and the TGI (KM12 colon) was > 100000 nM. For the same compound, the TGI (PC-3 prostate) was > 100000 nM, the TGI (MOLT-4 leukemia) was 26100 nM and the TGI (SNB-75 CNS) was > 100000 nM. The TGI (OVCAR-8 ovarian) was > 100000 nM, the TGI (NCI/ADR-RES ovarian) was > 100000 nM and the TGI (HCT-116 colon) was > 100000 nM. The TGI (MDA-MB-231 breast) was > 100000 nM, the TGI (HCT-15 colon) was > 100000 nM and the TGI (SF-295 CNS) was > 100000 nM. For the same compound, the TGI (SN12C renal) was > 100000 nM, the TGI (MDA-MB-435) was > 100000 nM and the TGI (UACC-257 melanoma) was > 100000 nM. For the same compound, the TGI (CCRF-CEM leukemia) was 40000 nM, the TGI (NCI-H460 lung) was > 100000 nM and the TGI (BT-549 breast) was 95900 nM. For the same compound, the TGI (HT29 colon) was > 100000 nM, the TGI (SNB-19 CNS) was > 100000 nM and the TGI (OVCAR-5 ovarian) was > 100000 nM. The TGI (SW-620 colon) was > 100000 nM, the TGI (ACHN renal) was > 100000 nM and the TGI (HS 578T breast) was 49300 nM. For the same compound, the TGI (MCF7 breast) was > 100000 nM, the TGI (SF-539 CNS) was > 100000 nM and the TGI (SF-268 CNS) was > 100000 nM. The TGI (SR leukemia) was 2080 nM, the TGI (A549 NSCLC) was 38500 nM and the TGI (OVCAR-4 ovarian) was > 100000 nM. The TGI (SK-MEL-28 melanoma) was > 100000 nM, the TGI (LOX IMVI melanoma) was > 100000 nM and the TGI (TK-10 renal) was > 100000 nM. For the same compound, the TGI (NCI-H522 lung) was 97900 nM, the TGI (786-0 renal) was > 100000 nM and the TGI (SK-OV-3 ovarian) was > 100000 nM. For the same compound, the TGI (M14 melanoma) was > 100000 nM and the TGI (T-47D breast) was 62400 nM.

In the case of `CC[C@@]1(OC(=O)CN)C(=O)OCc2c1cc1n(c2=O)Cc2cc3c(N)cccc3nc2-1`, the GI50 (K-562 leukemia) is reported as < 36.7 nM, the GI50 (OVCAR-3 ovarian) is reported as 74.9 nM and the TGI (OVCAR-3 ovarian) is reported as 3770 nM. For the same compound, the GI50 (CAKI-1 renal) was < 10 nM, the TGI (CAKI-1 renal) was 582 nM and the GI50 (HL-60(TB) leukemia) was < 10 nM. The GI50 (IGROV1 ovarian) was 115 nM, the GI50 (NCI-H226 lung) was 21.6 nM and the TGI (NCI-H226 lung) was 498 nM. For the same compound, the GI50 (HOP-62 NSCLC) was < 10 nM, the GI50 (MALME-3M melanoma) was 47.3 nM and the TGI (MALME-3M melanoma) was 1750 nM. For the same compound, the GI50 (HCC-2998 colon) was 84 nM, the TGI (HCC-2998 colon) was 782 nM and the GI50 (SK-MEL-2 melanoma) was 132 nM. The TGI (SK-MEL-2 melanoma) was 490 nM, the GI50 (U251 CNS) was < 10 nM and the TGI (U251 CNS) was 405 nM. It also gave a GI50 (COLO 205 colon) of 392 nM, a TGI (COLO 205 colon) of 2660 nM and a GI50 (RXF 393 renal) of 35.2 nM. It also gave a TGI (RXF 393 renal) of 476 nM, a GI50 (RPMI-8226 leukemia) of 47.4 nM and a GI50 (KM12 colon) of 158 nM. For the same compound, the TGI (KM12 colon) was 1920 nM, the GI50 (EKVX NSCLC) was 265 nM and the TGI (EKVX NSCLC) was > 100000 nM. For the same compound, the GI50 (PC-3 prostate) was 160 nM, the TGI (PC-3 prostate) was > 100000 nM and the GI50 (MOLT-4 leukemia) was < 10 nM. For the same compound, the TGI (MOLT-4 leukemia) was 27700 nM, the GI50 (HOP-92 NSCLC) was 37.1 nM and the TGI (HOP-92 NSCLC) was > 100000 nM. The GI50 (OVCAR-8 ovarian) was < 10 nM, the TGI (OVCAR-8 ovarian) was 153 nM and the GI50 (NCI/ADR-RES ovarian) was < 10 nM. For the same compound, the TGI (NCI/ADR-RES ovarian) was 258 nM, the GI50 (MDA-MB-231 breast) was 1430 nM and the TGI (MDA-MB-231 breast) was > 21500 nM. For the same compound, the GI50 (HCT-15 colon) was 249 nM, the TGI (HCT-15 colon) was > 100000 nM and the GI50 (SF-295 CNS) was < 10 nM. The TGI (SF-295 CNS) was 49.7 nM, the GI50 (SN12C renal) was < 10 nM and the TGI (SN12C renal) was 1100 nM. The GI50 (MDA-MB-435) was 47.6 nM, the TGI (MDA-MB-435) was 336 nM and the GI50 (UACC-257 melanoma) was 77.4 nM. The TGI (UACC-257 melanoma) was 1500 nM, the GI50 (CCRF-CEM leukemia) was < 10 nM and the TGI (CCRF-CEM leukemia) was > 100000 nM. The GI50 (NCI-H460 lung) was < 10 nM, the TGI (NCI-H460 lung) was 114 nM and the GI50 (A498 renal) was < 16 nM. It also gave a TGI (A498 renal) of 156 nM, a GI50 (BT-549 breast) of 37.2 nM and a TGI (BT-549 breast) of 1630 nM. The GI50 (HT29 colon) was 34.6 nM, the TGI (HT29 colon) was > 100000 nM and the GI50 (SNB-19 CNS) was < 10 nM. The TGI (SNB-19 CNS) was > 100000 nM, the GI50 (OVCAR-5 ovarian) was 45 nM and the TGI (OVCAR-5 ovarian) was 1120 nM. The GI50 (SW-620 colon) was 24.7 nM, the TGI (SW-620 colon) was 3780 nM and the GI50 (ACHN renal) was < 10 nM. The TGI (ACHN renal) was 28.7 nM, the GI50 (HS 578T breast) was > 100000 nM and the TGI (HS 578T breast) was > 100000 nM. For the same compound, the GI50 (MCF7 breast) was < 10 nM, the TGI (MCF7 breast) was > 100000 nM and the GI50 (SF-539 CNS) was < 10 nM. The TGI (SF-539 CNS) was < 15.3 nM, the GI50 (SF-268 CNS) was < 10 nM and the TGI (SF-268 CNS) was > 100000 nM. The GI50 (SR leukemia) was < 10 nM, the GI50 (A549 NSCLC) was < 12.9 nM and the TGI (A549 NSCLC) was 1770 nM. For the same compound, the GI50 (OVCAR-4 ovarian) was 211 nM, the TGI (OVCAR-4 ovarian) was 3320 nM and the GI50 (SK-MEL-28 melanoma) was 557 nM. For the same compound, the TGI (SK-MEL-28 melanoma) was > 20100 nM, the GI50 (LOX IMVI melanoma) was < 10 nM and the TGI (LOX IMVI melanoma) was 48.6 nM. The GI50 (TK-10 renal) was 1310 nM, the TGI (TK-10 renal) was > 21600 nM and the GI50 (NCI-H522 lung) was < 10 nM. For the same compound, the TGI (NCI-H522 lung) was 1310 nM, the GI50 (786-0 renal) was < 10 nM and the TGI (786-0 renal) was 203 nM. The GI50 (NCI-H23 lung) was < 10 nM, the TGI (NCI-H23 lung) was 76.5 nM and the GI50 (T-47D breast) was < 10 nM. For the same compound, the TGI (T-47D breast) was > 100000 nM.
